“Also recorded” adds a separate entry of the source.
Assays:
CD69 = CD69 expression on CD3+ T cells in draining lymph nodes (flow cytometry); assay type: in vivo, C57BL/6J mice or IFNAR−/− mice; details: 24 hr
Experimental: (§1) The data in FIG. 3 corresponds to an experiment wherein A) C57BL/6J mice (n=3) were injected with 50 μl of 6 mM R-DOTAP or 280 mM Sucrose subcutaneously in the foot pads. At indicated times popliteal draining lymph nodes from each mouse were isolated and single suspensions of lymph nodes were enumerated using hemocytometer to obtain total cell numbers. B) C57BL/6J (n=3) or IFNAR−/− (n=3) mice were injected with 50 μl of 6 mM R-DOTAP or 280 mM sucrose in the foot pad and draining popliteal lymph nodes were harvested from each mouse and enzymatically digested lymph nodes were assessed for the total cell number at 24 hr (B) using hemocytometer and expression of CD69 on CD3+ T cells (B) was assessed using flowcytometry. A-B) data represent total number of cells in each draining lymph node. C) Data represent percent CD69+ cells each group 24 hr after vaccination (n=3 mice per group).
IFN reporter cell assay and Cell phenotypic analysis: For detecting IFN, the supernatants from type I IFN producing cells were added to B16-Blue™ IFN-α/β Cells in a 96 well plate. After 24 hr incubation, the supernatants were assayed for SEAP activity using QUANTI-Blue™ reagent (InvivoGen, USA) according to manufacturer's instructions. Briefly, 50 μl of cell supernatants containing SEAP was mixed with 150 μl QUANTI-Blue™ reagent and incubated for 3-4 hr at 37° C. and absorbance was measured at 650 nm using a spectrometer. The concentrations of type I IFN in test samples were quantified using a standard curve generated from recombinant type I IFNβ treated B16-Blue™ IFN-α/β Cells in the same assay. To measure CD69 expression, single cell suspensions of lymph nodes were stained with fluorochrome conjugated CD3, and CD69 and percent CD69+CD3+ T cells in each draining lymph node were measured using flowcytometry.
To further understand the effect and ability of cationic lipids to activate the type I interferons, C57BL/6J mice or IFNAR−/− mice were injected with 50 μl of 6 mM R-DOTAP nanoparticles or 6 mM S-DOTAP or 280 mM sucrose subcutaneously in the foot pads. […]

draining lymph nodes = experiment: Cell recruitment: size and total cell number of draining lymph nodes; assay type: in vivo, C57BL/6J mice or IFNAR−/− mice
Experimental: as §1
To further understand the effect and ability of cationic lipids to activate the type I interferons, C57BL/6J mice or IFNAR−/− mice were injected with 50 μl of 6 mM R-DOTAP nanoparticles or 6 mM S-DOTAP or 280 mM sucrose subcutaneously in the foot pads. 24 hr after injection, popliteal draining lymph nodes from each mouse were isolated and single cell suspensions of lymph nodes were stained with fluorochrome conjugated CD3 and CD69. […] Type I IFN is known to inhibit lymphocyte egress from lymphoid organs through the up-regulation of CD69 which, in turn, inhibits the sphingosine 1 phosphate receptor required for lymphocyte egress. We therefore postulated that injection of both S-DOTAP and R-DOTAP would result in the upregulation of CD69 in the DLN. […] The data represents % CD69+CD3+ T cells in each draining lymph node.

type I interferon genes [1] = experiment: IFNα and IFNβ gene expression in popliteal draining lymph nodes (Taqman gene expression assay, RT-PCR); assay type: in vivo, C57BL/6J mice; details: 50 μl of 6 mM nanoparticles s.c. foot pads; popliteal DLN; 3 h or 24 h
Experimental: The data in FIG. 2 corresponds to an experiment wherein C57BL/6J mice (n=2) were injected with 50 μl of 6 mM R-DOTAP or S-DOTAP nanoparticles subcutaneously in the foot pads. Mice injected with PBS, and LPS (50 μg/mouse) (24 h time point) were used as negative and positive controls respectively. 3 h or 24 hr after injection, popliteal draining lymph nodes from each mouse were pooled and lysed in RLT buffer and processed for relative gene expression analysis using Taqman gene expression assay and RT-PCR.
RNA isolation, Nano string Analysis, and gene expression assay: For gene expression analysis, draining popliteal lymph nodes (n=4) were enzymatically digested using cell dissociation cocktail for 60 min at 37° C., and single cell suspensions were used to sort CD11c+ ells using Sony SY3200 cell sorter. Sort purified CD11c+ cells (25K cells) were lysed in Qiagen's RLT cell lysis buffer (Qiagen, USA) and total RNA was isolated using Qiagen total RNA isolation kit (Qiagen, USA). […] Binding of mRNA was detected with Nanso String nCounter analysis system, and raw count data was normalized and statistically analyzed using SAS program by UK genomics core laboratory. For confirmation studies using RT-PCR, the lymph nodes were directly lysed in RLT cell lysis buffer, and the total isolation RNA was reverse transcribed to cDNA using QuantiTect reverses transcription kit (Qiagen, USA). […]

type I interferon genes [2] = experiment: Inflammatory gene expression in sorted CD11c+ cells of draining lymph nodes (nCounter mouse inflammation kit, nanostring); assay type: in vivo, C57BL/6J mice
Experimental: The data in FIG. 1 corresponds to an experiment wherein C57BL/6J mice (n=4) were injected with 100 μl of 12 mM R-DOTAP liposome nanoparticles subcutaneously behind the neck. Mice injected with PBS, and LPS (50 μg/mouse) (24 h time point) were used as negative and positive controls respectively. 4 h or 24 hr after injection, axillary and brachial draining lymph nodes from each mouse were pooled and processed by collagenase digestion. CD11c positive cells (˜20,000 cells) in these lymph node cell suspensions were sort-purified and lysed in RLT buffer and processed for relative gene expression analysis using nCounter® mouse inflammation kit and nanostring technologies.
RNA isolation, Nano string Analysis, and gene expression assay: For gene expression analysis, draining popliteal lymph nodes (n=4) were enzymatically digested using cell dissociation cocktail for 60 min at 37° C., and single cell suspensions were used to sort CD11c+ ells using Sony SY3200 cell sorter. Sort purified CD11c+ cells (25K cells) were lysed in Qiagen's RLT cell lysis buffer (Qiagen, USA) and total RNA was isolated using Qiagen total RNA isolation kit (Qiagen, USA). Total RNA obtained was sent to University of Kentucky genomics core laboratory (Lexington, KY) where total RNA was mixed with Ncounter™ mouse inflammation panel (Nano String Technologies, Seattle, WA) which can measure over 547 genes involved in immune response. Binding of mRNA was detected with Nanso String nCounter analysis system, and raw count data was normalized and statistically analyzed using SAS program by UK genomics core laboratory. For confirmation studies using RT-PCR, the lymph nodes were directly lysed in RLT cell lysis buffer, and the total isolation RNA was reverse transcribed to cDNA using QuantiTect reverses transcription kit (Qiagen, USA). The cDNA was then amplified using TaqMan gene expression system (Applied biosystems, USA) to detect and quantify mouse IFNα and IFNβ transcripts relative to GAPDH expression using quantitative PCR reaction.
To assess cationic nanoparticle induced gene expression, C57BL/6J mice were injected with 100 μl of 12 mM R-DOTAP nanoparticles subcutaneously behind the neck, and inflammatory gene expression in draining lymph nodes analyzed 4 or 24 hours post vaccination. Mice injected with PBS, and LPS (50 μg/mouse) (24 h time point) were used as negative and positive controls respectively. 4 h or 24 hr after injection, axillary and brachial draining lymph nodes from each mouse were pooled and processed by collagenase digestion. Activated dendritic cells (CD11c^+) cells in the lymph node cell suspensions were sort-purified and lysed in RLT buffer and processed for relative gene expression analysis using nCounter® mouse inflammation kit and nanostring technologies.

[3] = wild type mice, 50 μl of 6 mM s.c. foot pads

CCCCCCCC/C=C\CCCCCCCC(=O)OC[C@@H](C[N+](C)(C)C)OC(=O)CCCCCCC/C=C\CCCCCCCC [R-DOTAP, (R)-1,2-dioleoyl-3-trimethylammonium propane]
CD69 expression in DLN T cells (CD69; IFNαR knock-out mice): no CD69 upregulation | CD69 expression in DLN T cells (CD69; [3]): up-regulation of CD69 most strongly in T cells | DLN size (draining lymph nodes; 50 μl of 6 mM s.c. foot pads, without antigen, wild type mice): visible increase | Increase in total cell number in DLN in IFNαR knock-out mouse versus wild type (draining lymph nodes; IFNαR knock-out mouse, 24 hr): greatly reduced | Total cell number in DLN (draining lymph nodes; wild type mice, over a 7-day period): steady increase | Type I interferon (IFNα, IFNβ) gene expression, RT-PCR (type I interferon genes [1]): strong inducers; also recorded: up-regulation | Expression of IFN-1α and IFN-1β, increase relative to LPS positive control (type I interferon genes [2]; 100 μl of 12 mM nanoparticles s.c. behind the neck, CD11c+ cells of axillary and brachial DLN, 4 or 24 h, LPS 50 μg/mouse): greater than 5 fold | Expression of several inflammatory genes (type I interferon genes [2]; 100 μl of 12 mM s.c., both time points (4 h, 24 h)): significantly alter | Expression of other genes including Cxc110 (type I interferon genes [2]; 100 μl of 12 mM s.c., compared with LPS): significantly increased and more comparable to levels induced by LPS | Type I interferon gene expression (nanostring) (type I interferon genes [2]; FIG. 1, mean of 4 mice): up-regulation

CCCCCCCC/C=C\CCCCCCCC(=O)OCC(C[N+](C)(C)C)OC(=O)CCCCCCC/C=C\CCCCCCCC (stereo not drawn) [S-DOTAP, 1,2-dioleoyl-3-trimethyl ammonium-propane]
CD69 expression in DLN T cells (CD69; [3]): up-regulation of CD69 most strongly in T cells | Type I interferon (IFNα, IFNβ) gene expression, RT-PCR (type I interferon genes [1]): strong inducers; also recorded: up-regulation

Reference: patent US12551460B2, “Methods and compositions comprising cationic lipids for stimulating type 1 interferon genes” (PDS BIOTECHNOLOGY COPORATION, priority 2017, dated 2026)
